The results in this text go back to patent US7335674B2, “Benzothiazole-4,7-diones and benzoxazole-4,7-diones with substituents in position 5 or 6 and method for production thereof” (Societe de Conseils de Recherches et d'Applications …, priority 2003, dated 2008).

Test [1] relates to DU145 (human prostate cancer cells). The test is described as follows: Antiproliferative activity, WST1 colorimetric test, DU145. The test is classed as cell-based. As to conditions: DU-145, treated 96 hours, up to 10 μM, read-out: IC50 on the cell proliferation of the DU-145 lines. How it is done:
(§1) iii) Characterization of the Antiproliferative Activity:
(§2) By way of example, the effect of a treatment on two human cell lines Mia-Paca2 and DU145 by the compounds of the examples described previously will be studied. The cell lines DU145 (human prostate cancer cells) and Mia-PaCa2 (human pancreas cancer cells) were acquired from the American Tissue Culture Collection (Rockville, Md., USA). The cells placed in 80 μl of Dulbecco's Modified Eagle's medium (Gibco-Brl, Cergy-Pontoise, France) completed with 10% foetal calf serum inactivated by heating (Gibco-Brl, Cergy-Pontoise, France), 50,000 units/l of penicillin and 50 mg/l of streptomycin (Gibco-Brl, 10378-057, Cergy-Pontoise, France), and 2 mM of glutamine (Gibco-Brl, Cergy-Pontoise, France) were seeded on a 96-well plate on day 0. The cells were treated on day 1 for 96 hours with increasing concentrations of each of the compounds to be tested up to 10 μM. At the end of this period, quantification of cell proliferation is evaluated by a colorimetric test based on the cleavage of the tetrazolium salt WST1 by the mitochondrial dehydrogenases in viable cells leading to the formation of formazan (Boehringer Mannheim, Meylan, France). These tests are carried out in duplicate with 8 determinations per concentration tested. For each compound to be tested, the values included in the linear part of the sigmoid were retained for a linear regression analysis and used to estimate the inhibitory concentration IC50. The products are solubilized in dimethylsulphoxide (DMSO) at 10^−2 M and finally used in culture with 0.1% DMSO.
(In general: Formazan colour is commonly taken as a measure of viable cells.)

Test [2] relates to Mia-Paca2 (human pancreas cancer cells). The test is described as follows: Antiproliferative activity, WST1 colorimetric test, Mia-PaCa2. The test is classed as cell-based. As to conditions: MIA PaCa-2, Mia-Paca2, treated 96 hours, up to 10 μM, read-out: IC50 on the cell proliferation of the Mia-Paca2 lines. How it is done: as §1, §2

Consider `CN(C)CCNC1=CC(=O)c2sc(-c3c(F)cccc3F)nc2C1=O` [Example 1, 2-(2,6-difluorophenyl)-5-{[2-(dimethylamino)ethyl]amino}-1,3-benzothiazole-4,7-dione], for which the IC50 in test [1] and in test [2] was not above 10 µM each time.
Consider `CN(C)CCNC1=CC(=O)c2sc(-c3cc(Cl)sc3Cl)nc2C1=O` [Example 2, 2-(2,5-dichlorothien-3-yl)-5-{1-[2-(dimethylamino)ethyl]amino}-1,3-benzothiazole-4,7-dione], for which the IC50 in test [1] and in test [2] was not above 10 µM in each case.
In the case of `O=C1C(NCCN2CCCC2)=CC(=O)c2sc(-c3cc(Cl)sc3Cl)nc21` [Example 3, 2-(2,5-dichlorothien-3-yl)-5-[(2-pyrrolidin-1-ylethyl)amino]-1,3-benzothiazole-4,7-dione], the IC50 in test [1] and in test [2] was not above 10 µM throughout.
Turning to `CN(C)CCNC1=CC(=O)c2sc(-c3ccc(F)cc3)nc2C1=O` [Example 4, 5-{[2-(dimethylamino)ethyl]amino}-2-(4-fluorophenyl)-1,3-benzothiazole4,7-dione], the IC50 in test [1] and in test [2] was not above 10 µM each time.
Turning to `O=C1C(NCCN2CCCC2)=CC(=O)c2sc(-c3ccc(F)cc3)nc21` [Example 5, 2-(4-fluorophenyl)-5-[(2-pyrrolidin-1-ylethyl)amino]-1,3-benzothiazole-4,7-dione], the IC50 in test [1] and in test [2] was not above 10 µM in each case.
For the compound `CN(C)CCNC1=CC(=O)c2sc(-c3c(F)cccc3Cl)nc2C1=O` [Example 6, 2-(2-chloro-6-fluorophenyl)-5-{[2-(dimethylamino)ethyl]amino}-1,3-benzothiazole4,7-dione], the IC50 in test [1] and in test [2] was not above 10 µM throughout.
As for `O=C1C(NCCN2CCCC2)=CC(=O)c2sc(-c3c(F)cccc3Cl)nc21` [Example 7, 2-(2-chloro-6-fluorophenyl)-5-[(2-pyrrolidin-1-ylethyl)amino]-1,3-benzothiazole-4,7-dione], the IC50 in test [1] and in test [2] was not above 10 µM each time.
For the compound `CN(C)CCNC1=CC(=O)c2nc(-c3c(F)cccc3Cl)sc2C1=O` [Example 12, 2-(2-chloro-6fluorophenyl)-6-{[2-(dimethylamino)ethyl]amino}-1,3-benzothiazole-4,7-dione], the IC50 in test [1] and in test [2] was not above 10 µM throughout.
With `CN(C)CCNC1=CC(=O)c2nc(-c3cc(F)ccc3F)sc2C1=O` [Example 14, 2-(2,5-difluorophenyl)-6-{[2-(dimethylamino)ethyl]amino}-1,3-benzothiazole-4,7-dione], the IC50 in test [1] and in test [2] was not above 10 µM each time.
On to `CN(C)CCNC1=CC(=O)c2oc(-c3cc(F)c(F)c(F)c3)nc2C1=O` [Example 21, 5-{[2-(dimethylamino)ethyl]amino}-2-(3,4,5-trifluorophenyl)-1,3-benzoxazole4,7-dione], for which the IC50 in test [1] and in test [2] was not above 10 µM throughout.
Consider `CN(C)CCNC1=CC(=O)c2nc(-c3cc(F)ccc3F)oc2C1=O` [Example 27, 2-(2,5-difluorophenyl)-6-{[2-(dimethylamino)ethyl]amino}-1,3-benzoxazole-4,7-dione], for which the IC50 in test [1] and in test [2] was not above 10 µM in each case.
On to `COc1cc(-c2nc3c(o2)C(=O)C(NCCN(C)C)=CC3=O)cc(OC)c1OC` [Example 40, 6-{[2-(dimethylamino)ethyl]amino}-2-(3,4,5-trimethoxyphenyl)-1,3-benzoxazole-4,7-dione], for which the IC50 in test [1] and in test [2] was not above 10 µM in each case.
As to `CCc1ccc(-c2nc3c(o2)C(=O)C(NCCN2CCCC2)=CC3=O)cc1` [Example 54, 2-(4-ethylphenyl)-6-[(2-pyrrolidin-1-ylethyl)amino]-1,3-benzoxazole-4,7-dione], the IC50 in test [1] and in test [2] was not above 10 µM throughout.
`COc1cc(-c2nc3c(o2)C(=O)C(NCCN2CCCC2)=CC3=O)cc(OC)c1OC` [Example 56, 6-[(2-pyrrolidin-1-ylethyl)amino]-2-(3,4,5-trimethoxyphenyl)-1,3-benzoxazole-4,7-dione]: the IC50 in test [1] and in test [2] was not above 10 µM throughout.
